Broadly, the Emax is the size of the effect at its maximum, as opposed to the concentration needed. The melting point is the temperature of the solid-liquid transition.

The results in this text go back to patent US7214697B2, “2-Oxo-benzimidazolyl substituted ethanolamine derivatives and their use as β3 agonists” (Eli Lilly and Company, priority 2002, dated 2007).

Data set [1] deals with T1, human β3 adrenergic receptor (Homo sapiens, UniProt P13945).
T1 construct: expressed in transfected cells; host or cells: DXB-11 Chinese hamster ovary (CHO) cell line, stably transfected (phd expression vector)
T1 sequence (P13945 whole entry): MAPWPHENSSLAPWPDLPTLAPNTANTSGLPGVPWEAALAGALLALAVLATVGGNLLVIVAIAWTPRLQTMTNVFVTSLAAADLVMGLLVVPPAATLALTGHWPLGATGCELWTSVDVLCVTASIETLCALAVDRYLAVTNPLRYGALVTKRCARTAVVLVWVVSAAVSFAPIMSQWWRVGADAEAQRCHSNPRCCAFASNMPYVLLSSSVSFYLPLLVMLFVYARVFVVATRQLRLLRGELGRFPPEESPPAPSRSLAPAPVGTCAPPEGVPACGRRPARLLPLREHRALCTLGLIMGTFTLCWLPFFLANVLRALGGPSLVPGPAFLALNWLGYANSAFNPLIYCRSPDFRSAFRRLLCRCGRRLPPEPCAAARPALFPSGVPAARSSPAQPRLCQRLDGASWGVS
The data set is described as follows: whole cell receptor coupled c-AMP assay (Emax relative to isoproterenol). Format: cell-based. Conditions: transfected CHO cells, c-AMP SPA; compound's maximal response divided by isoproterenol maximal response times 100; average of at least 3 runs; SEM in brackets; read-out: Emax (SEM), % intrinsic activity relative to isoproterenol. An excerpt: The Emax values represent the average of at least 3 runs except as otherwise indicated.
The genes encoding the human β1-adrenergic receptor (Frielle et al., Proc. Natl. Acad. Sci., 84:7920–7924, 1987), the human β2-adrenergic receptor (Kobika et al., Proc. Natl. Acad. Sci., 84:46–50, 1987, Emorine et al., Proc. Natl. Acad. Sci., 84:6995–6999, 1987) and the human β3 adrenergic receptor (GraTineman et al., Molecular Pharmacology, 44(2):264–70, 1993) are individually subcloned into a phd expression vector (Grinnell el al., Bio/Technology, 5:1189–1192, 1987) and transfected into the DXB-11 Chinese hamster ovary (CHO) cell line by calcium phosphate precipitation methodology. The stably transfected cells are grown to 95% confluency in 95% Dulbecco's modified Eagles Medium (DMEM), 5% fetal bovine serum and 0.01% proline. Media is removed and the cells are washed with phosphate buffered (pH 7.4) saline (without magnesium and calcium). Cells are then lifted using an enzyme free cell dissociation solution (Specialty Media, Lavallette, N.J.) and pelleted by centrifugation.
Cells from each of the above cell lines are resuspended and added (20,000/well) to a 96-well plate. Cells are incubated at 37° C. with representative compounds of the invention for 20 minutes in buffer (Hank's balanced salt solution, 10 mM HEPES, 0.1% BSA, 1 mM L-ascorbic acid, 0.2% dimethyl sulfoxide, 1 mM 3-isobutyl-1-methylxanthine, pH 7.4). After halting the incubation with quench buffer (50 mM Na Acetate, 0.25% Triton X-100, pH 5.8), the c-AMP level is quantified by scintillation proximity assay (SPA) using a modification of the commercially available c-AMP kit (Amersham, Arlington Heights, Ill.) with rabbit anti-cAMP antibody (ICN Bioniedicals, Aurora, Ohio) for the kit.
Sigmoidal dose response curves, from the whole cell receptor coupled c-AMP assay are fit to a four parameter logistic equation using non linear regression: y=(a-d)/(1+(Dose/c)^b)+d where a and d are responses at zero and maximal dose, b is the slope factor and c is the EC50 as previously described (DeLean et al., Am. J. Physiol., 235, E97–E102, 1978). EC50 is assessed as the concentration producing 50% of the maximum response to each agonist.
Isoproterenol is accepted in the art as a non-selective β3 agonist and is widely used as a comparator in evaluating the activity of compounds. See Trends in Pharm. Sci., 15:3, 1994. The % intrinsic activity (Emax) of representative compounds of the invention is assessed relative to isoproterenol by the compound's maximal response divided by the isoproterenol maximal response times 100.

The next data set concerns rat atria. The data set is described as follows: In Vitro Rat Atrial Tachycardia. Conditions: isolated rat atria, cumulative addition until no further increase in atrial rate or 10^-4; average of at least 3 runs. On the procedure:
Male rats (250–350 g) (Harlan Sprague Dawley, Indianapolis, Ind., USA) are killed by cervical dislocation. Hearts are removed and the left and right atria are dissected and mounted with thread in tissue baths containing 10 mls of modified Krebs' solution. Initial resting tension is 1.5–2.0 g at the outset of the experiment (Naunyn-Schmied Arch. Pharmacol., 320:145, 1982). Tissues are allowed to equilibrate approximately 30 minutes with vigorous oxygenation before exposure to a compound of the invention.
To evaluate the ability of test compounds to increase heart rate, representative compounds of the present invention are added cumulatively once the atrial rate reached a steady state from the previous addition. Compound addition is continued until no further increase in atrial rate occurred or until a concentration of 10^−4 is reached. The increase in beats per minute (bpm) is measured for each concentration of test compound by means of a BioPac System (Br. J. of Pharmacol., 126:1018–1024, 1999).
The “% increase” values represent the average of at least 3 runs.

As to `CC(C)(Cc1ccc(Oc2ccc(C(N)=O)cn2)cc1)NC[C@H](O)COc1cccc2[nH]c(=O)n(CC3CCCC3)c12` [Example 19], the Emax in data set [1] was 63.7%.
Regarding `CC(C)(Cc1ccc(Oc2ncccc2C(N)=O)cc1)NC[C@H](O)COc1cccc2[nH]c(=O)n(CC3CCCC3)c12` [Example 20], the Emax in data set [1] turned out to be 66.8%.
With `CC(C)(C)Cn1c(=O)[nH]c2cccc(OC[C@@H](O)CNC(C)(C)Cc3ccc(Oc4ccc(C(N)=O)cn4)cc3)c21` [Example 12], in data set [1], the Emax turned out to be 65.5%.
For the molecule `CC(C)(Cc1ccc(Oc2ccc(C(N)=O)cn2)cc1)NC[C@H](O)COc1cccc2[nH]c(=O)n(CC3CC3)c12` [Example 14], the maximal response (Emax) in data set [1] is 67.9%.
Regarding `CC(C)(Cc1ccc(Oc2ccc(C(N)=O)cc2Cl)cc1)NC[C@H](O)COc1cccc2[nH]c(=O)n(CC3CCCC3)c12.Cl` [Example 21], the melting point is 159 to 164 °C (dec.).
Turning to `CC(C)(Cc1ccc(Cc2ccc(C(N)=O)cn2)cc1)NC[C@H](O)COc1cccc2[nH]c(=O)n(CC3CC3)c12` [Cyclopropylmethyl], the “% Increase in Heart Rate” value with rat atria is on record as 8.9 ± 1.2%.
For `CC(C)(Cc1ccc(Oc2ccc(C(N)=O)cc2Cl)cc1)NC[C@H](O)COc1cccc2[nH]c(=O)n(CC3CC3)c12` [Example 16], the Emax in data set [1] is 76%.
On to `CC(C)(Cc1ccc(Oc2ccc(C(N)=O)cn2)cc1)NC[C@H](O)COc1cccc2[nH]c(=O)n(CC3CCC3)c12` [Example 17], for which, in data set [1], the maximal effect (Emax) came to 58.2%.
Consider `CC(C)(Cc1ccc(Cc2ccc(C(N)=O)cn2)cc1)NC[C@H](O)COc1cccc2[nH]c(=O)n(CC3CCC3)c12` [Cyclobutylmethyl], for which the “% Increase in Heart Rate” value with rat atria stood at 6.5 ± 2.2%.
For the molecule `CC(C)(Cc1ccc(Cc2ccc(C(N)=O)cn2)cc1)NC[C@H](O)COc1cccc2[nH]c(=O)[nH]c12` [Hydrogen, reference compound], the “% Increase in Heart Rate” value in the data set with rat atria is on record as 17.7 ± 3.7%.
Still for that read-out and setting: next, `CCn1c(=O)[nH]c2cccc(OC[C@@H](O)CNC(C)(C)Cc3ccc(Cc4ccc(C(N)=O)cn4)cc3)c21` [Ethyl, reference compound]: 19.9 ± 0.4%; `Cn1c(=O)[nH]c2cccc(OC[C@@H](O)CNC(C)(C)Cc3ccc(Cc4ccc(C(N)=O)cn4)cc3)c21` [Methyl, reference compound]: 20.8 ± 1.8%.
With `CC(C)(C)Cn1c(=O)[nH]c2cccc(OC[C@@H](O)CNC(C)(C)Cc3ccc(Oc4ncccc4C(N)=O)cc3)c21` [Example 13], the Emax in data set [1] is 66.4%.
Regarding `CC(C)(Cc1ccc(Oc2ncccc2C(N)=O)cc1)NC[C@H](O)COc1cccc2[nH]c(=O)n(CC3CCC3)c12` [Example 18], the maximal response (Emax) in data set [1] worked out at 59.8%.
Take `CC(C)(Cc1ccc(Oc2ncccc2C(N)=O)cc1)NC[C@H](O)COc1cccc2[nH]c(=O)n(CC3CC3)c12` [Example 15]: the Emax in data set [1] is 80.1%.
Consider `CC(C)(Cc1ccc(Cc2ccc(C(N)=O)cn2)cc1)NC[C@H](O)COc1cccc2[nH]c(=O)n(CC3CCCC3)c12` [Cyclopentylmethyl], for which the “% Increase in Heart Rate” value in the data set on rat atria worked out at 9.9 ± 0.3%.
